Results as given in PMC1950228, “Organosilicon-Containing Thiazole Derivatives as Potential Lipoxygenase Inhibitors and Anti-Inflammatory Agents” (Bioinorganic Chemistry and Applications, 2007).
Values after ≈ are worked out from the molar mass of the structure shown. Values joined by “and” are separate entries in the source; they are usually repeats but may differ in a detail not shown here. Equal values may be shown once. “Also recorded” adds a separate entry of the source. Read-outs that look alike come from different tables or passages of the source. Marks after values point to notes of the source that are not given here.

Legend:
[1] = In vitro cytotoxicity, NIH 3T3 (neutral red) and LD50; format: cell-based; conditions: for CC50 at 72 h: 50% cell killing, neutral red coloration, normal mouse fibroblasts, read-out: LC50 NIH 3T3 NR; for LD50: mouse, NIH 3T3, method not described
Method: The control cells and cells with tested compounds in the range of 2–5* 10^4 cell mL^−1 concentration (depending on line nature) were placed on separate 96 wells plates. […] Control cells were treated in the same manner only in the absence of test compounds. Plates were cultivated for 72 hours. The number of survived cells was determined using crystal violet (CV), 3-(4,5-dimethylthiazol-2-yl)-2,5-diphenyltetrazolinium bromide (MTT), or neutral red (NR) coloration which was assayed by multiscan spectrophotometer. The quantity of alive cells on control plate was taken in calculations for 100% [22, 23]. The LC50 was calculated using Graph Pad Prism 3.0 program, r < .05. Concentration of NO was determined according to [23].

[2] = test system: HT-1080 (human fibrosarcoma); assay: In vitro cytotoxicity, HT-1080; format: cell-based; conditions: for stimulation of HT-1080 cell growing: CV, at all studied concentrations; for CC50: Homo sapiens; for LC50 HT-1080: human fibrosarcoma, coloration not stated
Method: (§1) Monolayer tumour cell lines MG-22A (mouse hepatoma), HT-1080 (human fibrosarcoma), and normal mouse fibroblasts (NIH 3T3) were cultivated for 72 hours in DMEM standard medium (Sigma) without an indicator and antibiotics. After the ampoule had thawed, cells from one to four passages were used in three concentrations of test compound: 1, 10 and 100 μg mL^−1. The control cells and cells with tested compounds in the range of 2–5* 10^4 cell mL^−1 concentration (depending on line nature) were placed on separate 96 wells plates. Solutions containing test compounds were diluted and added in wells to give the final concentrations. Control cells were treated in the same manner only in the absence of test compounds. Plates were cultivated for 72 hours. The number of survived cells was determined using crystal violet (CV), 3-(4,5-dimethylthiazol-2-yl)-2,5-diphenyltetrazolinium bromide (MTT), or neutral red (NR) coloration which was assayed by multiscan spectrophotometer. The quantity of alive cells on control plate was taken in calculations for 100% [22, 23]. The LC50 was calculated using Graph Pad Prism 3.0 program, r < .05. Concentration of NO was determined according to [23].

[3] = test system: HT-1080 (human fibrosarcoma); assay: Intracellular NO generation, HT-1080; format: cell-based; conditions: CV coloration
Method: as §1

MG-22A (mouse hepatoma) [4] = assay: Intracellular NO generation, MG-22A; format: cell-based; conditions: CV coloration
Method: as §1

MG-22A (mouse hepatoma) [5] = assay: In vitro cytotoxicity, MG-22A; format: cell-based; conditions: for CC50: Mus musculus, MG-22A; for LC50 MG-22A: mouse hepatoma, coloration not stated
Method: as §1

[6] = test system: HT-1080 (human fibrosarcoma); conditions: cited from earlier work
[7] = target: T1, soybean lipoxygenase (LOX) (Glycine max, UniProt P08170); assay: Soybean lipoxygenase inhibition (UV absorbance at 234 nm); format: biochemical; conditions: for % inhibition LOX: at 0.1 mmol
T1 sequence (P08170 1-839): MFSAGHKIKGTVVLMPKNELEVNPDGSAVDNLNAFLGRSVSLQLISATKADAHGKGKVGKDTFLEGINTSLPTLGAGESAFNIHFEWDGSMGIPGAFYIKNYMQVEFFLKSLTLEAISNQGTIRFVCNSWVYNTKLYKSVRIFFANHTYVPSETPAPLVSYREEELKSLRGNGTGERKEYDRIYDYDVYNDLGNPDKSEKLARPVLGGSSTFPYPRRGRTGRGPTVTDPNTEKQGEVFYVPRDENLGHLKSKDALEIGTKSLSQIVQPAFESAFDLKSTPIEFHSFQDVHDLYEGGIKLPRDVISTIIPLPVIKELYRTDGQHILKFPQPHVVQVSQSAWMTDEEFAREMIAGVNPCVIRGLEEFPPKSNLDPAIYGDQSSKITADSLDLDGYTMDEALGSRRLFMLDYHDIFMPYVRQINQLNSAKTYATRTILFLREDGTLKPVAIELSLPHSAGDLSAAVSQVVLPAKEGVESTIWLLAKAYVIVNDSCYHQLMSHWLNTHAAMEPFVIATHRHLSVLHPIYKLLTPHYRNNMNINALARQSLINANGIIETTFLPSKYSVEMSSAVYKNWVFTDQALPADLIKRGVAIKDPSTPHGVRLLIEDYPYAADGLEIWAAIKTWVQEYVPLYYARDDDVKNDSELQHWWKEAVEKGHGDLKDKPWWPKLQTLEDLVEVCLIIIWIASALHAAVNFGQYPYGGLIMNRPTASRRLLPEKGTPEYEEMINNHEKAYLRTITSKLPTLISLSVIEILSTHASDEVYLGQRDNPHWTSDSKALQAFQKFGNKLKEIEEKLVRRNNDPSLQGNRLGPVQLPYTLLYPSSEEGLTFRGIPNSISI
Method: The tested compounds dissolved in DMSO or ethanol (concentrations ranged from 0.1 to 1 mM) were incubated at room temperature with sodium linoleate (0.1 mmol) and 0.2 mL of enzyme solution (250 U/mL in saline).
While one may not extrapolate the quantitative results of this assay to the inhibition of mammalian 5-LOX, it has been shown that inhibition of plant lipoxygenase activity by NSAIDs is qualitatively similar to their inhibition of the rat mast cell lipoxygenase and may be used as a simple qualitative screen for such activity. […] The IC50 values for compounds 14, 16, 17, 19, and 22 were determined.

[8] = test system: carrageenin mice paw edema (CPE); assay: Carrageenin-induced mice paw edema inhibition; format: in vivo, AKR or A mice
Method: AKR or A mice (20–30 g, groups of ten) of both sexes were used. Females pregnant were excluded. A single dose of 0.2 mmol/kg body weight of compounds 12, 16, 20, 21 and 0.01 mmol/kg of compound 22 or 0.013 mmol/kg of compound 14 suspended in water with few drops of Tween 80 was administered intraperitoneally simultaneously to the intradermally injection of 0.05 mL carrageenin in the right hind paw. Indomethacin was used as a standard diluted agent.
Organosilicon-containing compounds 12, 14, 16, 20–22 were examined in vivo for their anti-inflammatory activity using the carrageenin mice paw edema (CPE) as a model of inflammation. The in vivo anti-inflammatory effects of the tested thiazole derivatives were assessed by using the functional model of carrageenin-induced […] paw edema and are presented in Table 1 as percentage of weight increase at the right hind paw in comparison to the uninjected left hind paw.

[9] = NIH 3T3 normal mouse fibroblasts
[10] = HT-1080, 50% cell killing, MTT coloration, 72 hours, read-out: LC50 HT-1080 MTT
[11] = HT-1080, 50% cell killing, crystal violet coloration, 72 hours, read-out: LC50 HT-1080 CV
[12] = 50% cell killing, MTT coloration, 72 hours, read-out: LC50 MG-22A MTT
[13] = 50% cell killing, crystal violet coloration, 72 hours, read-out: LC50 MG-22A CV
[14] = dose 0.2 mmol/kgbw, intraperitoneally
[15] = soybean lipoxygenase, sodium linoleate 0.1 mmol, read-out: IC50 LOX
[16] = HT-1080, 72 h, read-out: LC50 HT-1080 MTT
[17] = 72 h, read-out: LC50 MG-22A MTT

O=C(CN1CCC(O)CC1)Nc1nccs1 [Compound 6, 2-(4-hydroxypiperidin-1-yl)-N-(thiazol-2-yl)-acetnamide]
CC50 at 72 h [1, 9]: > 100 mg/L | LD50 [1]: > 2000 mg/kg | stimulation of HT-1080 cell growing [2]: up to 55% | CC50 [2, 10]: > 100 mg/L | CC50 [2, 11]: > 100 mg/L | LC50 HT-1080 [2]: do not exhibit cytotoxic properties | NO HT-1080 CV [3]: 4 | NO MG-22A CV (MG-22A (mouse hepatoma) [4]): 6 | decrease of MG-22A cell growing (MG-22A (mouse hepatoma) [5]; MTT coloration): up to 40% | CC50 (MG-22A (mouse hepatoma) [5]; [12]): > 100 mg/L | CC50 (MG-22A (mouse hepatoma) [5]; [13]): > 100 mg/L | LC50 MG-22A (MG-22A (mouse hepatoma) [5]): do not exhibit cytotoxic properties

COc1ccc(-c2csc(NC(=O)CN3CCC(O)CC3)n2)cc1 [Compound 8, 2-(4-hy-droxypiperidin-1-yl)-N-[4-(p-methoxyphenyl)-thiazol-2-yl]-acetamide]
CC50 at 72 h [1, 9]: > 100 mg/L | LD50 [1]: 1110 mg/kg | CC50 [2, 10]: 100 mg/L (≈ 288 µM) | CC50 [2, 11]: > 100 mg/L | NO HT-1080 CV [3]: 8 | NO MG-22A CV (MG-22A (mouse hepatoma) [4]): 75 | CC50 (MG-22A (mouse hepatoma) [5]; [12]): 16 mg/L | CC50 (MG-22A (mouse hepatoma) [5]; [13]): 17 mg/L

O=C(CCN1CCC(O)CC1)Nc1nccs1 [Compound 10, 3-(4-hydroxypiperidin-1-yl)-N-(thiazol-2-yl)-propionamide]
LC50 human fibrosarcoma ([6]; HT-1080, coloration not stated, previously published data ref 17): 48 mg/L (≈ 188 µM)

Cc1ncsc1CCO[Si](C)(C)C [Compound 12, 4-methyl-5-(β-trimethylsiloxyethyl)-thiazole]
% inhibition LOX ([7]; soybean lipoxygenase): 9.1% | % carrageenin mice paw edema inhibition (CPE%) [8, 14]: 24 ^** %

C[Si](C)(C)OCc1csc(N)n1 [Compound 14, 2-amino-4-trimethylsiloxymethyl-thiazole]
IC50 [7, 15]: 100 µM | % carrageenin mice paw edema inhibition (CPE%) ([8]; dose 0.013 mmol/kg, intraperitoneally): 35.5 ^* %

C[Si](C)(C)OCc1csc(-c2ccccc2)n1 [Compound 16, 2-phenyl-4-trimethylsilox-ymethyl-thiazole]
IC50 [7, 15]: 470 µM | % carrageenin mice paw edema inhibition (CPE%) [8, 14]: 47.6 ^* %

C[Si](C)(C)OC1CCN(CC(=O)Nc2nccs2)CC1 [Compound 17, 2-(4-trimethylsiloxypiperidin-1-yl)-N-(thiazol-2-yl)-acetamide]
IC50 [7]: 350 µM | CC50 at 72 h [1]: > 100 mg/L | LD50 [1]: 2130 mg/kg | stimulation of HT-1080 cell growing [2]: up to 55% | CC50 [2, 16]: > 100 mg/L | LC50 HT-1080 [2]: do not exhibit cytotoxic properties; also recorded: inactive | NO HT-1080 CV [3]: 11 | NO MG-22A CV (MG-22A (mouse hepatoma) [4]): 23 | decrease of MG-22A cell growing (MG-22A (mouse hepatoma) [5]; MTT coloration): up to 40% | CC50 (MG-22A (mouse hepatoma) [5]; [17]): > 100 mg/L | LC50 MG-22A (MG-22A (mouse hepatoma) [5]): do not exhibit cytotoxic properties; also recorded: inactive

C[Si](C)(C)OC1CCN(CC(=O)Nc2nc(-c3ccccc3)cs2)CC1 [Compound 18, 2-(4-trimethylsiloxypiperidin-1-yl)-N-(4-phenylthiazol-2-yl)-acetamide]
% inhibition LOX ([7]; soybean lipoxygenase): 66.7%

COc1ccc(-c2csc(NC(=O)CN3CCC(O[Si](C)(C)C)CC3)n2)cc1 [Compound 19, 2-(4-trimethylsilyloxypiperidin-1-yl)-N-[4-(p-methoxyphenyl)-thiazol-2-yl]-acetamide]
IC50 [7]: 10 µM | CC50 at 72 h [1]: 72 mg/L (≈ 172 µM) | LD50 [1]: 839 mg/kg | CC50 [2, 16]: 100 mg/L (≈ 238 µM) | CC50 ([2]; HT-1080, read-out: LC50 HT-1080): > 100 mg/L | NO HT-1080 CV [3]: 27 | NO MG-22A CV (MG-22A (mouse hepatoma) [4]): 122 | CC50 (MG-22A (mouse hepatoma) [5]; 72 h, read-out: LC50 MG-22A CV): 21 mg/L | CC50 (MG-22A (mouse hepatoma) [5]; [17]): 13 mg/L | CC50 (MG-22A (mouse hepatoma) [5]; read-out: LC50 MG-22A): 30 µM

CCCCCCCCCCCCCCc1sc(NC(=O)CN2CCC(O[Si](C)(C)C)CC2)nc1-c1ccccc1 [Compound 20, 2-(4-trimethylsiloxypiperidin-1-yl)-N-(4-phenyl-5-tetradecylthi-azol-2-yl)-acetamide]
lower lipoxygenase inhibiting properties in comparison with compound 18 ([7]; difference of % inhibition at 0.1 mmol): 26% | % inhibition LOX ([7]; soybean lipoxygenase): 40.8% | % carrageenin mice paw edema inhibition (CPE%) [8, 14]: 38.3 ^* %

C[Si](C)(C)OC1CCN(CCC(=O)Nc2nccs2)CC1 [Compound 21, 3-(4-trimethylsiloxypiperidin-1-yl)-N-(thiazol-2-yl)-propionamide]
% carrageenin mice paw edema inhibition (CPE%) [8, 14]: 57.2% and 57.2 ^* % | LC50 human fibrosarcoma [6]: 44 mg/L (≈ 134 µM)

C[Si](C)(C)CCC[n+]1ccsc1N.[I-] [Compound 22, 2-amino-3-(γ-trimethylsilylpropyl)thiazolium iodide]
IC50 [7, 15]: 460 µM | % carrageenin mice paw edema inhibition (CPE%) ([8]; dose 0.01 mmol/kg, intraperitoneally): 55.0% and 55.0 ^* %

COc1ccc2c(c1)c(CC(=O)O)c(C)n2C(=O)c1ccc(Cl)cc1 [Indomethacin, reference compound]
% carrageenin mice paw edema inhibition (CPE%) ([8]; standard, dose 0.1 mmol/kgbw): 57.4%
